# “And” between values parts separate entries of the source, which are not always exact repeats. Equal values may be shown once. Read-outs that look alike come from different tables or passages of the source.
# Key:
# [1] = RP-HPLC retention as measure of overall peptide hydrophobicity; assay type: physicochemical; settings: pH 2, room temperature
# Experimental: Crude and purified peptides were analyzed on an Agilent 1100 series liquid chromatograph (Little Falls, Del.). Runs were performed on a Zorbax 300 SB-C8 column (150×2.1 mm I.D.; 5 μm particle size, 300 Å pore size) from Agilent Technologies using linear AB gradient (1% acetonitrile/min) and a flow rate of 0.25 ml/min, where eluant A was 0.2% aqueous TFA, pH 2 and eluant B was 0.2% TFA in acetonitrile.
# [2] = test system: Acinetobacter baumannii; assay type: cell-based
# Experimental: (§1) Minimal inhibitory concentrations (MICs) are determined using a standard microtiter dilution method, with 3 sets of determinations, in LB (Luria-Bertani) no-salt medium (10 g of tryptone and 5 g of yeast extract per liter). In some cases, Mueller Hinton (MH) medium or Brain Heart Infusion (BHI) medium is used.
# (§2) Briefly, cells were grown overnight at 37° C. in LB and diluted in the same medium. Serial dilutions of the peptides are added to the microtiter plates in a volume of 100 μl followed by 10 μl of bacteria to give a final inoculum of 5×10^5 colony-forming units/ml. Plates are incubated at 37° C. for 24 hours and MICs determined as the lowest peptide concentration that inhibited growth. Alternatively, minimal inhibitory concentrations are determined using a standard microtiter dilution method in a Mueller-Hinton (MH) medium. Briefly, cells are grown overnight at 37° C. in MH broth and diluted in the same medium. In some cases, serial dilutions of the peptides are added to the microtiter plates in a volume of 100 μl followed by 10 μl of bacteria to give a final inoculum of 1×10^5 colony-forming units/ml. Plates are incubated at 37° C. for 24 hours and MICs are determined as the lowest peptide concentration that inhibited growth.
# The biological activities of these six peptide analogs was determined against 11 clinical isolated of Acinetobacter baumannii (Table 9). Please note that the activities are reported in micromolar rather than microgram/ml. This allows a direct comparison on a molar basis with the effectiveness of molecules of different molecular weights whether peptides disclosed herein or antibiotics which in general are smaller in molecular mass. […] These are the highest antimicrobial activities observed in studies of antimicrobial peptides derived by modifying the peptide sequence of SEQ ID NO:24 (D1). D22 has the best hemolytic activity of the six analogs (D17-D22) and a therapeutic index of […] compared to […] for D1 (Table 9). D22 has no apparent advantage over D1 as determined in these experiments.
# [3] = Hemolytic activity against human erythrocytes (HC50 / MHC, microtiter dilution); assay type: cell-based; settings: human, 1% human erythrocytes, pH 7.4
# Experimental: Hemoglobin release was determined spectrophotometrically at 570 nm. The hemolytic activity was determined as the peptide concentration that caused 50% hemolysis of erythrocytes after 18 h (HC50). […] HC50 was determined by a plot of peptide concentration versus percent lysis.
# [4] = test system: Pseudomonas aeruginosa; settings: for MIC PAO 1: 37° C., 24 h, strain PAO1; for MIC GM (geometric mean of the MIC values): six P. aeruginosa strains; for MIC CP 204: strain CP204; for MIC M 2: strain M2; for MIC PA 14: strain PA14; for MIC PAK: strain PAK; for MIC WR 5: strain WR5
# [5] = test system: Methicillin Resistant Staphylococcus aureus (MRSA) and Staphylococcus aureus; assay type: cell-based
# Experimental: as §1, §2
# Identification of Antimicrobial Peptides for Gram-positive Bacteria. In a manner similar to testing against gram-negative bacteria, experiments were carried out to screen the 14 peptides used to identify antimicrobial peptides with significant activity against A. baumanii shown above against 20 different clinical isolates of Methicillin Resistant Staphylococcus aureus (MRSA) and Staphylococcus aureus.
smiles,measurement,setting,value
"CC[C@@H](C)[C@@H](NC(=O)[C@@H](CC(C)C)NC(=O)[C@@H](CCCCN)NC(=O)[C@@H](CC(C)C)NC(=O)[C@@H](CC(C)C)NC(=O)[C@H](NC(=O)[C@@H](Cc1c[nH]cn1)NC(=O)[C@@H](CC(C)C)NC(=O)[C@@H](CCCCN)NC(=O)[C@H](NC(=O)[C@@H](CCCCN)NC(=O)[C@@H](CCCCN)NC(=O)[C@@H](CC(C)C)NC(=O)[C@@H](CO)NC(=O)[C@@H](CCCCN)NC(=O)[C@@H](Cc1ccccc1)NC(=O)[C@H](NC(=O)[C@@H](CCCCN)NC(=O)[C@@H](CC(C)C)NC(=O)[C@@H](Cc1ccccc1)NC(=O)[C@@H](CO)NC(=O)[C@@H](CCCCN)NC(=O)[C@@H](Cc1c[nH]c2ccccc12)NC(=O)[C@@H](CCCCN)NC(C)=O)[C@H](C)O)[C@H](C)O)[C@H](C)O)C(=O)N[C@H](CO)C(=O)N[C@H](CO)C(N)=O [Peptide D5, Ac-KWKSFLKTFKSLKKTKLHTLLKLISS-amide]",Hydrophobicity (retention time in RP-HPLC),[1],80.44 min
same,MIC GM (geometric mean),[2],1.7 µM
same,Acinetobacter baumannii MICGM,"[2]; geometric mean, 11 different isolates, 24 hours at 37° C.",1.7 µM
same,HC50 at 18 h,[3],47 µg/mL and 14.9 µM
same,MIC PAO 1,[4]; Brain Heart Infusion medium,31.3 µg/mL
same,MIC GM (geometric mean of the MIC values),[4]; Brain Heart Infusion medium,22.1 µg/mL
same,MIC CP 204,[4]; Brain Heart Infusion medium,31.3 µg/mL
same,MIC M 2,[4]; Brain Heart Infusion medium,15.6 µg/mL
same,MIC PA 14,[4]; Brain Heart Infusion medium,15.6 µg/mL
same,MIC PAK,[4]; Brain Heart Infusion medium,31.3 µg/mL
same,MIC WR 5,[4]; Brain Heart Infusion medium,15.6 µg/mL
same,MIC PAO 1,[4]; Mueller Hinton medium,7.8 µg/mL
same,MIC GM (geometric mean of the MIC values),[4]; Mueller Hinton medium,11.0 µg/mL
same,MIC CP 204,[4]; Mueller Hinton medium,15.6 µg/mL
same,MIC M 2,[4]; Mueller Hinton medium,7.8 µg/mL
same,MIC PA 14,[4]; Mueller Hinton medium,7.8 µg/mL
same,MIC PAK,[4]; Mueller Hinton medium,15.6 µg/mL
same,MIC WR 5,[4]; Mueller Hinton medium,15.6 µg/mL
same,Pseudomonas aeruginosa MICGM,"[4]; geometric mean, 6 different isolates, 24 hours at 37° C.",3.5 µM
same,MIC GM (geometric mean),[5],5.4 µM

# — US9352015B2, “Antimicrobial peptides” (priority 2009, dated 2016)
